# From ChEMBL document CHEMBL1201862, “PubChem BioAssay data set” (2004)
# Calls of active or inactive are those of the source.
# Assays:
# [1] = molecular target: ATP-dependent molecular chaperone HSP82 (Candida albicans (strain WO-1) (Yeast), UniProt C4YTQ8); assay: steroid-induced GRE reporter decrease in yeast – S. cerevisiae, luminescence, Hsp90 inhibitor project, dose response (AID 2400); assay type: functional, cell-based;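 further: beta-galactosidase luminescence from glucocorticoid response element reporter as proxy for Hsp90 function; inhibitor potency where signal loss means Hsp90 inhibition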
# Chain of ATP-dependent molecular chaperone HSP82 (C4YTQ8 whole entry): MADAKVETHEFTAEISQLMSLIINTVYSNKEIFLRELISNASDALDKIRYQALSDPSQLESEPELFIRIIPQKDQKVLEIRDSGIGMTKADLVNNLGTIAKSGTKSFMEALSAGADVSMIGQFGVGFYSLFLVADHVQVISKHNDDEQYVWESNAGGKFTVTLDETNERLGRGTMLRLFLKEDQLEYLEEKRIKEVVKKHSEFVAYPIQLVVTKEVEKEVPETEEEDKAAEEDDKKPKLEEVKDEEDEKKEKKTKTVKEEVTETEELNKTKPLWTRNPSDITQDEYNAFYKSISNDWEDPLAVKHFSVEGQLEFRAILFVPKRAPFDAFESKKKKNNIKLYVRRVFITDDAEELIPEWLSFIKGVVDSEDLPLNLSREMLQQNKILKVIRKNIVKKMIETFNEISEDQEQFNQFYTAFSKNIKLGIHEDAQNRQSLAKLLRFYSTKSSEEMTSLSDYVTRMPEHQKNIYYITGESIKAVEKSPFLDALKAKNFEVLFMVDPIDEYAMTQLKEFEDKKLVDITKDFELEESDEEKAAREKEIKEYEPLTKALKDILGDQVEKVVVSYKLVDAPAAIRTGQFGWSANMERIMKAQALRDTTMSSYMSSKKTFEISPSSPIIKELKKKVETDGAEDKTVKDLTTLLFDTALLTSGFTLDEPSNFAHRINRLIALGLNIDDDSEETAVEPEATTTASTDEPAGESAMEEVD
# [2] = NIH-3T3 fibroblast cytotoxicity, dose response, cytotoxicity control, cell-based, fluorescence, Alamar Blue, secondary assay (AID 2327); assay type: functional;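 further: NIH-3T3 mouse fibroblasts cultured with fluconazole at 8 µg/mL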
# [3] = molecular target: T1, Serine/threonine-protein phosphatase (Candida dubliniensis (strain CD36 / CBS 7987 / NCPF 3949 / NRRLY-17841) (Yeast), UniProt B9W6M3); assay: blockers of CaCl2-induced CDRE-lacZ signaling – S. cerevisiae, luminescence, secondary, dose response (AID 2388); assay type: functional, cell-based;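 further: yeast reporter cells carrying a calcineurin-responsive lacZ construct stimulated with calcium chloride; luminescent beta-galactosidase reporter signal in whole cells rather than isolated phosphatase activity; potency for inhibition where a drop in reporter signal means calcineurin blockade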
# T1 sequence (B9W6M3 whole entry): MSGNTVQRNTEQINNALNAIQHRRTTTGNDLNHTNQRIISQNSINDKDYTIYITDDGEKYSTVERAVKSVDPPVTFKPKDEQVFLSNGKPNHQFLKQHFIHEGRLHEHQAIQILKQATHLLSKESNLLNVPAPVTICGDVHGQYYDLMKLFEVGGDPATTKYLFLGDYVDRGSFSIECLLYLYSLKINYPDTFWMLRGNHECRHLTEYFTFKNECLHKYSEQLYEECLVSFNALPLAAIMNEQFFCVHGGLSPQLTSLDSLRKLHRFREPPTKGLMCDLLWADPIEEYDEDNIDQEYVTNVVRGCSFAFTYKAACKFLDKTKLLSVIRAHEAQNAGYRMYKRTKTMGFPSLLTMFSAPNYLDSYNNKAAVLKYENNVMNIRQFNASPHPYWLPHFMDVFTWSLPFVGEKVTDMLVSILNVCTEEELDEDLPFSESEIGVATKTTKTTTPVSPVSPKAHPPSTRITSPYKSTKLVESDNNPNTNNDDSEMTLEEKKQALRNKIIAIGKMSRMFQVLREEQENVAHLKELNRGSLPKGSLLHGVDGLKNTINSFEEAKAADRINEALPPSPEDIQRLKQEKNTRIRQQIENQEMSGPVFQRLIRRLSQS
# [4] = fluconazole-exposed Candida albicans growth modulators – fluorescence, retest, confirmation (AID 2467); assay type: functional, cell-based
# [5] = molecular target: 72 kDa type IV collagenase (Homo sapiens, UniProt P08253); assay: Dose Response validation of uHTS RPN11 inhibitor hits using a MMP-2 Fluorescence assay.; assay type: functional
# Chain of 72 kDa type IV collagenase (P08253 whole entry): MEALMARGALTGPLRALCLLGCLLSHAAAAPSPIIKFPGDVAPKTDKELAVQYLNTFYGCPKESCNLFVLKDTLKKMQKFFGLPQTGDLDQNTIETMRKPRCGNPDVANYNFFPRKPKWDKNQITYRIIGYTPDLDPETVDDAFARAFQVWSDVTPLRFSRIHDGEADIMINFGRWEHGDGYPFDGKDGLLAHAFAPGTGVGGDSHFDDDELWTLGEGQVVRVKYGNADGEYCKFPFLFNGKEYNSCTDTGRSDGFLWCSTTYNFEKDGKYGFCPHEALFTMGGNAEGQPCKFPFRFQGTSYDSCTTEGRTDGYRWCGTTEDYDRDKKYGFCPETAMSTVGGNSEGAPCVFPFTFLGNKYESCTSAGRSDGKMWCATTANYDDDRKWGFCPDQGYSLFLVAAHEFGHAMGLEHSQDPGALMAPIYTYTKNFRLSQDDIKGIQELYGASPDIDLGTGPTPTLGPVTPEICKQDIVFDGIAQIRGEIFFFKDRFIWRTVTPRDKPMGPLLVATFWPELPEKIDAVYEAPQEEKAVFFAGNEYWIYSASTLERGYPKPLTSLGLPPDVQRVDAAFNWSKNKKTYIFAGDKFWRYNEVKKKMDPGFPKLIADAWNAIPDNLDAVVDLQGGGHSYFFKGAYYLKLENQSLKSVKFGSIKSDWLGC
# [6] = molecular target: 26S proteasome non-ATPase regulatory subunit 14 (Homo sapiens, UniProt O00487); assay: inhibition of proteasome subunit RPN11 – biochemical, fluorescence polarization, uHTS hits, confirmation (AID 602368); assay type: functional
# Chain of 26S proteasome non-ATPase regulatory subunit 14 (O00487 whole entry): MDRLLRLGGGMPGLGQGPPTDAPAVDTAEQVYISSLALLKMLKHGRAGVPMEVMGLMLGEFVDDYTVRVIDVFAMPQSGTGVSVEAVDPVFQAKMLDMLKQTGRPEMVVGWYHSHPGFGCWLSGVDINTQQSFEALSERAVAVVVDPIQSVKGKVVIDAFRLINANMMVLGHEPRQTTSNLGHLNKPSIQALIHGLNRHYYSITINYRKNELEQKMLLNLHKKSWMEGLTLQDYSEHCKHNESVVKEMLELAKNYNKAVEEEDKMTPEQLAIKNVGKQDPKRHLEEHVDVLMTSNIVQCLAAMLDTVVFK
# [7] = molecular target: Prothrombin (Bos taurus, UniProt P00735); assay: thrombin protease inhibitors – biochemical, fluorescence polarization, uHTS hits, dose response (AID 602369); assay type: functional
# [8] = molecular target: T2, DNA repair and recombination protein RAD54-like (Homo sapiens, UniProt Q92698); assay: RAD54 Holliday junction migration blockers – biochemical, fluorescence, cherry-picked samples, dose series, confirmation (AID 651657); assay type: functional
# T2 sequence (Q92698 whole entry): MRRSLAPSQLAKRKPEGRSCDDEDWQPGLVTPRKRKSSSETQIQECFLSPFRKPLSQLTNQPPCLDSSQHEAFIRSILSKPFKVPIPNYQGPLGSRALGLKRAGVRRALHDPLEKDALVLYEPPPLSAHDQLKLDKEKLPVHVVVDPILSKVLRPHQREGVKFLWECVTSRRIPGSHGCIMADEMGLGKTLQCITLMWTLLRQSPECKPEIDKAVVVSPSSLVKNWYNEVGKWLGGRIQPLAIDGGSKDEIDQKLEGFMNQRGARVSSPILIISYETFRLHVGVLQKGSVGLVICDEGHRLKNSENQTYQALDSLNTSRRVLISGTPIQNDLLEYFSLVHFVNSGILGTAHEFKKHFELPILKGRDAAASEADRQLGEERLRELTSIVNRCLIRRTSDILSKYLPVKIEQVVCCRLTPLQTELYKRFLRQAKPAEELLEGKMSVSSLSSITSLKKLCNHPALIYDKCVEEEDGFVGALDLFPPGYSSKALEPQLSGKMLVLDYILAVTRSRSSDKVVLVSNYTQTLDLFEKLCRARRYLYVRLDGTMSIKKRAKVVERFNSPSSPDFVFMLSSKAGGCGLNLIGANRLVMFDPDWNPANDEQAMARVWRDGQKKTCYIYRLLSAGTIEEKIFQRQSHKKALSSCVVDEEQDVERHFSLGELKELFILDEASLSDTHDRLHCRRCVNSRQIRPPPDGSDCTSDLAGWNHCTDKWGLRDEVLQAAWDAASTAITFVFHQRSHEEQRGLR
# [9] = molecular target: Cytochrome P450 3A4 (Homo sapiens, UniProt P08684);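 further: CYP3A4 tested as one member of a cytochrome P450 panel screen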
# Chain of Cytochrome P450 3A4 (P08684 whole entry): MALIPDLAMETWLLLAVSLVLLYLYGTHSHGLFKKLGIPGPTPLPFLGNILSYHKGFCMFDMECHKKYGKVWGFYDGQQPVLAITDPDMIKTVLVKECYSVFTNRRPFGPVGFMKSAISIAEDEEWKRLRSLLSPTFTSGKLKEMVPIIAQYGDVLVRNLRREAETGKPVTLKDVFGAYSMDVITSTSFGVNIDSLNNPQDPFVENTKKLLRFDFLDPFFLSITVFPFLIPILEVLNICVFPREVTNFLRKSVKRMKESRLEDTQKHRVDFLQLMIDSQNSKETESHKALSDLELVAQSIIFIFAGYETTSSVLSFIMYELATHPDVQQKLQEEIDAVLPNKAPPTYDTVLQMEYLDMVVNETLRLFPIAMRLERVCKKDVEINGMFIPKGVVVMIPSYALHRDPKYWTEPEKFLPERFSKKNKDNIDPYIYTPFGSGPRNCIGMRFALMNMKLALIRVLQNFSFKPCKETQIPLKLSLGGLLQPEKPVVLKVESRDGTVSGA
# [10] = molecular target: Cytochrome P450 2D6 (Homo sapiens, UniProt P10635);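 further: CYP2D6 member of a cytochrome P450 panel assay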
# Chain of Cytochrome P450 2D6 (P10635 whole entry): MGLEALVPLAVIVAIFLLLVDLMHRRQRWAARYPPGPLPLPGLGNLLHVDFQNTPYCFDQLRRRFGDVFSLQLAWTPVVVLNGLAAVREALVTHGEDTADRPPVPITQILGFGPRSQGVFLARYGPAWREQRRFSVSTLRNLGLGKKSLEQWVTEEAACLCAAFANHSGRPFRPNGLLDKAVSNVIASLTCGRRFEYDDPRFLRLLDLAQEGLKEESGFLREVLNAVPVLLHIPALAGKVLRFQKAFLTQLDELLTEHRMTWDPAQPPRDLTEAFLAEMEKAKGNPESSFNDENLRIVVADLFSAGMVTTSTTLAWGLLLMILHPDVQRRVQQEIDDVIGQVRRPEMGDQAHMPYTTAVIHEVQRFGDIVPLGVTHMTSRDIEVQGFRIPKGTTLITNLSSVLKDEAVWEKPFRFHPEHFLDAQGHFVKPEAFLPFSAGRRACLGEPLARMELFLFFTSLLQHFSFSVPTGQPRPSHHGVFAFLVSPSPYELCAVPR
# [11] = molecular target: T3, DNA repair protein RAD52 homolog (Homo sapiens, UniProt P43351); assay type: functional, biochemical
# T3 sequence (P43351 whole entry): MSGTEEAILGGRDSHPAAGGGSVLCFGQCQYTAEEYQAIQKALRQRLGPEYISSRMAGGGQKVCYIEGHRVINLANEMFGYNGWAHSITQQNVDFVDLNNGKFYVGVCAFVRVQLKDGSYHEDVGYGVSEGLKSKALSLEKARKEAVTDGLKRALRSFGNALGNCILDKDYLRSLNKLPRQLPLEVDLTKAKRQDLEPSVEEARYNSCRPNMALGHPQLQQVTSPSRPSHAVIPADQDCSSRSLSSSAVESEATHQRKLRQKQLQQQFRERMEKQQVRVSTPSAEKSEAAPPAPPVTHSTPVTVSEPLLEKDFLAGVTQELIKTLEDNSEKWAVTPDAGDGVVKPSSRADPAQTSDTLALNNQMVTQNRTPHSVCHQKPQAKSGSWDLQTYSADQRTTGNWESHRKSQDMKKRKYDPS
# [12] = test system: Streptococcus; assay: GAS UMAA2166 growth inhibition – luminescence, BacTiterGlo, counter-screen for streptokinase expression inhibitor project, dose response (AID 1915); assay type: functional, organism-based;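 further: potency for reduction of bacterial viability or growth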
# [13] = test system: Streptococcus sp. 'group A'; assay: Streptococcus pyogenes SK(-)GAS viability under kanamycin – luminescence, BacTiterGlo, confirmation, counter-screen for streptokinase expression inhibitor project, dose response (AID 1900); assay type: functional, organism-based
# [14] = molecular target: T4, Streptokinase A (Streptococcus pyogenes serotype M1, UniProt P10520); assay: viability-normalized secreted streptokinase activity reduction – plasminogen activation absorbance, OD405, dose response (AID 1914); assay type: functional, Streptococcus pyogenes M1 GAS;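 further: secreted streptokinase activity via plasminogen activation per viability signal from cell pellet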
# T4 sequence (P10520 whole entry): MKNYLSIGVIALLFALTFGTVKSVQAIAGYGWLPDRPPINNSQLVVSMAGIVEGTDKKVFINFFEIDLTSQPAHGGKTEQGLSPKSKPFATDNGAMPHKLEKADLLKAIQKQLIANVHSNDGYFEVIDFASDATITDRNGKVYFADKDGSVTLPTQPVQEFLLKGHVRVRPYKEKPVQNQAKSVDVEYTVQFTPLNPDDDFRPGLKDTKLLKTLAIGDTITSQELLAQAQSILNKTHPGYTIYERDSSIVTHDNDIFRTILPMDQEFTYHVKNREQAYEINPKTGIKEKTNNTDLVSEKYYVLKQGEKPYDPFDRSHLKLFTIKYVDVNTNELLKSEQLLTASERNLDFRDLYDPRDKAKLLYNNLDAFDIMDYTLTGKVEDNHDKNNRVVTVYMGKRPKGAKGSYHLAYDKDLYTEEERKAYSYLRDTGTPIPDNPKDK
# [15] = off-target signal loss in HeLa-CEM21 co-culture – HeLa F-luc CTL cells, cherry-picked, counter-screen for HIV-1 Env fusion inhibitor project, dose response (AID 652040); assay type: functional, cell-based;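 further: potency for signal decrease marking cytotoxic or nonspecific inhibition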
# [16] = blockers of HIV-1 envelope-mediated cell-cell fusion – cherry-pick, dose response (AID 652057); assay type: functional, cell-based
# [17] = blockers of HIV-1 ZM109 envelope-driven cell-cell fusion – HeLa effector, CEM target cells, luciferase, cherry-pick, dose response (AID 652058); assay type: functional, cell-based;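 further: luciferase signal from HIV-1 Env mediated cell-cell fusion of effector and target cells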
# [18] = HIV-1 AD8 envelope cell-cell fusion blockers – cherry-pick, dose response (AID 652062); assay type: functional, cell-based;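 further: luciferase signal from cell-cell fusion driven by HIV-1 clade B AD8 Env; potency is for inhibitors of fusion seen as a drop in luminescence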
# [19] = test system: Vero; assay: cells; assay type: functional; details: Chlorocebus sabaeus
# [20] = test system: P388/ADR; assay: cells; assay type: functional; details: Mus musculus
# [21] = test system: SN12K1; assay: cells; assay type: functional
# [22] = molecular target: T5, Rac GTPase-activating protein 1 (Homo sapiens, UniProt Q9H0H5); assay: blockers of MgcRacGAP-driven Rac1 GTP hydrolysis – biochemical, ADP Hunter fluorescence, primary and confirmatory, confirmation (AID 624330); assay type: functional
# T5 sequence (Q9H0H5 whole entry): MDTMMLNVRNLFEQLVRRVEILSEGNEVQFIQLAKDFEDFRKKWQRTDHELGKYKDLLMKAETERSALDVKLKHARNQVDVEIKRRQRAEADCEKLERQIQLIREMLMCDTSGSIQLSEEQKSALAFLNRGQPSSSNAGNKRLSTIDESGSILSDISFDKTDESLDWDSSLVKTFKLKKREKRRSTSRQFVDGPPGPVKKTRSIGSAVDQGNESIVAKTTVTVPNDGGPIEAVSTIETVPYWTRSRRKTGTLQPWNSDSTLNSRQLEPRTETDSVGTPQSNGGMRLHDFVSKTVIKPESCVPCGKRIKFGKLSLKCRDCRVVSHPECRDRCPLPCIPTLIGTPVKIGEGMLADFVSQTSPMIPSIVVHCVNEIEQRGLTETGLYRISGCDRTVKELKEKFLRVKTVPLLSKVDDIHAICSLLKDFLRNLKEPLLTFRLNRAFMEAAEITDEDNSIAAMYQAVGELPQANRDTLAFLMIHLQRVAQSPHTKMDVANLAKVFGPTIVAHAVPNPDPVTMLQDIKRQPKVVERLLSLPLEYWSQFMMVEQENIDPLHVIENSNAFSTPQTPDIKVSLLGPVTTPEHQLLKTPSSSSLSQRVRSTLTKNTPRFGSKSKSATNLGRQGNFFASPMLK
# [23] = cells; assay type: functional, cell-based
# [24] = molecular target: Nonstructural protein 1 (Influenza A virus, UniProt Q194T2); assay type: functional, Influenza A virus (A/California/07/2009(H1N1))
# Chain of Nonstructural protein 1 (Q194T2 whole entry): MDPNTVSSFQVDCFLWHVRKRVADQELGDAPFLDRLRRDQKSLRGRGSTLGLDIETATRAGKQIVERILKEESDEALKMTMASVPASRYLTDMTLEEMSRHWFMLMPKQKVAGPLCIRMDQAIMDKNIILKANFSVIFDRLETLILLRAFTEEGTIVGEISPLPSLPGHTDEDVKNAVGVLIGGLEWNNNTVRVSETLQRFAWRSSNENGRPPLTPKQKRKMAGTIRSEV
# [25] = cells; assay type: functional, cell-based; remark: listed apart in the source
# [26] = test system: HEK293; assay: EBV LMP1 TES2 canonical NF-kB signalling blockers – cell-based, HEK293, luciferase, cherry-pick, dose response (AID 588343); assay type: functional; details: Homo sapiens
# [27] = molecular target: Large T antigen (Simian virus 40, UniProt P03070); assay type: functional, Betapolyomavirus macacae;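 further: Confirmatory-stage PubChem screen for compounds that inhibit SV40 T antigen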
# Chain of Large T antigen (P03070 whole entry): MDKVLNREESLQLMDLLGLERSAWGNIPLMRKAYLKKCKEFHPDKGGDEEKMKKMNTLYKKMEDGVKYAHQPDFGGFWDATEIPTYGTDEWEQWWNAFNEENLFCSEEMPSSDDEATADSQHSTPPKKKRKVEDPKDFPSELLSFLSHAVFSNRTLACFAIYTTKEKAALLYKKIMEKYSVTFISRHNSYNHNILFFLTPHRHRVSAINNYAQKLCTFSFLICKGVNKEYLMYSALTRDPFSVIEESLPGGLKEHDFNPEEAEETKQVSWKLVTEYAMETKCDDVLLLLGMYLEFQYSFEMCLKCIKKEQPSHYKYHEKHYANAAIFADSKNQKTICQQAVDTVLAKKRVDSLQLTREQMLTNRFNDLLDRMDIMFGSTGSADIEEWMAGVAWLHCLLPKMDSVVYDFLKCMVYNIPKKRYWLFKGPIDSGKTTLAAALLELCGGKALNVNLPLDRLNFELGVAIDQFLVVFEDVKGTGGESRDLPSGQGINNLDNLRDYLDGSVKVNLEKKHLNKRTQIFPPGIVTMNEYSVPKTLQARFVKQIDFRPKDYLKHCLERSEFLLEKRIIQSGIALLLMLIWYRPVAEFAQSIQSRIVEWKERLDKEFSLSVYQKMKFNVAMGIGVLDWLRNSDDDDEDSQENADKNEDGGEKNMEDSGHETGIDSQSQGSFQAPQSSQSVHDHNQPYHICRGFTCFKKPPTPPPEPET
structure (smiles),measurement,setting,value
COc1ccc(-n2nc(C(=O)NCC(=O)N3CCN(c4ccc(F)cc4)CC3)c3ccccc3c2=O)c(OC)c1,EC50,[1],> 150 µM (inactive)
same,EC50,[2],> 150 µM (inactive)
same,EC50,[3],> 180 µM (inactive)
same,EC50,[4],0.642 µM (active)
CC(C)(C)c1nc2ccccc2c2nnc(SCC(=O)Nc3nc4ccccc4s3)n12,IC50,[5],> 100 µM (inactive)
same,IC50,[6],3.79 µM (active)
same,IC50,[7],> 100 µM (inactive)
CCN(CC)CCN(C(=O)c1ccc2ncsc2c1)c1nc2cc3c(cc2s1)OCO3,AC50,[8],51.9 µM (active)
Cc1ccc2[nH]c(/C(C#N)=C\c3ccc(OC(=O)c4cccs4)cc3)nc2c1,EC50,[1],23.3 µM (active)
same,EC50,[2],17.2 µM (inconclusive)
same,AC50,[9],14.1 µM (inconclusive)
same,AC50,[10],3.55 µM (inconclusive)
same,EC50,[3],> 180 µM (inactive)
same,EC50,[4],5.29 µM (active)
Cn1c2ccccc2c(=O)c2cc(NCCCN3CCOCC3)ccc21,AC50,[8],11.7 µM (active)
same,AC50,[11],7.92 µM (active)
O=C(c1cc2ccccc2cc1O)N1CCN(c2ccccc2O)CC1,EC50,[1],> 150 µM (inactive)
same,EC50,[2],> 150 µM (inactive)
same,EC50,[12],110 µM (active)
same,EC50,[13],24.3 µM (active)
same,EC50,[3],> 180 µM (inactive)
same,EC50,[4],0.274 µM (active)
same,EC50,[14],> 150 µM (not active)
O=C(N(c1ccccn1)c1ccccn1)C12CC3CC(CC(Cl)(C3)C1)C2,AC50,[15],6.95 µM (active)
same,AC50,[16],5.04 µM (active)
same,AC50,[17],4.96 µM (active)
same,AC50,[18],9.92 µM (active)
Cn1c(=O)oc2cc(S(=O)(=O)N3CCN(c4ccccc4F)CC3)ccc21,IC50,[5],> 100 µM (inactive)
same,IC50,[6],20.7 µM (active)
same,IC50,[7],52.9 µM (active)
CC[C@]1(C(=O)OC)[C@H]2C(=O)N(Cc3ccccc3)C(=O)[C@H]2[C@H]2CN=C(SCc3ccccc3)N21,AC50,[15],1.55 µM (active)
same,AC50,[16],1.01 µM (active)
same,AC50,[17],1.16 µM (active)
same,AC50,[18],1.68 µM (active)
O=C(CC1CCCC1)NNC(=O)c1ccccc1O,CC50,[19],> 25 µM (active)
CCN(CC)CC[n+]1ccc2c(C)c3[nH]c4ccccc4c3c(C)c2c1,GI50,[20],29.9 µM (inactive)
same,GI50,[21],0.137 µM (active)
COc1ccc(NC(=O)c2cccc3c(-c4cccnc4)coc23)cc1,IC50,[5],> 100 µM (inactive)
same,IC50,[6],15.2 µM (active)
same,IC50,[7],> 100 µM (inactive)
COc1ccc(NC(=O)Nc2ccc3c(c2)CC(=O)N([C@H](C)CO)C[C@H](C)[C@H](CN(C)S(=O)(=O)c2cccs2)O3)cc1,AC50,[16],0.96 µM (active)
same,AC50,[17],1.55 µM (active)
same,AC50,[18],5.21 µM (active)
CCN(CC)S(=O)(=O)c1ccc(N/N=C/c2ccc(O)cc2O)nc1,EC50,[1],> 160 µM (inactive)
same,IC50,[22],24.3 µM (active)
same,EC50,[2],38.5 µM (active)
same,EC50,[23],4.61 µM (active)
same,IC50,[24],12.1 µM (active)
same,EC50,[25],> 350 µM (not active)
same,EC50,[3],> 180 µM (inactive)
same,AC50,[26],5.04 µM (active)
same,EC50,[4],0.945 µM (active)
COc1cc2c(cc1O)CC[n+]1cc3c(OC)c(OC)ccc3cc1-2 [JATRORRHIZINE],EC50,[2],> 160 µM (inactive)
same,IC50,[27],10.1 µM (active)
same,AC50,[11],15.2 µM (active)
same,EC50,[4],2.91 µM (active)
